From patent US11160785B2, “Methods and compositions for improving cognitive function” (AgeneBio, Inc., priority 2013, dated 2021)
Like-named read-outs stand apart in the source and are kept apart here.

How the values were obtained:
aged-impaired rats (AI) = type: in vivo, rat
Method: FIG. 1 depicts the effects of administering levetiracetam on the spatial memory retention of ten aged-impaired rats (AI) in an eight-arm Radial Arm Maze (RAM) test. Six treatment conditions are employed: vehicle control, levetiracetam (1.25 mg/kg/day), levetiracetam (2.5 mg/kg/day), levetiracetam (5 mg/kg/day), levetiracetam (10 mg/kg/day) and levetiracetam (20 mg/kg/day). In the RAM task used, there is a one-hour delay between presentation of a subset of arms (5 arms available and 3 arms blocked) and completion of the eight-arm win-shift task (eight arms available). Rats are pre-treated 30-40 minutes before daily trials with a one-time drug/control treatment. The number of errors made by the rats during the retention phase is used as a measure of spatial memory retention. Errors are defined as instances when rats enter an arm from which food has already been retrieved in the pre-delay component of the trial or when rats re-visit an arm in the post-delay session that had already been visited. Paired t-tests are used to compare the number of errors between different doses of levetiracetam and vehicle control. […]
A Radial Arm Maze (RAM) behavioral task is one example of a cognitive test, specifically testing spacial memory (Chappell et al. Neuropharmacology 37: 481-487, 1998). The RAM apparatus consists of, e.g., eight equidistantly spaced arms. A maze arm projects from each facet of a center platform. A food well is located at the distal end of each arm. Food is used as a reward. Blocks can be positioned to prevent entry to any arm. Numerous extra maze cues surrounding the apparatus may also be provided. After habituation and training phases, spatial memory of the subjects may be tested in the RAM under control or test compound-treated conditions. As a part of the test, subjects are pretreated before trials with a vehicle control or one of a range of dosages of the test compound. At the beginning of each trial, a subset of the arms of the eight-arm maze is blocked. Subjects are allowed to obtain food on the unblocked arms to which access is permitted during this initial “information phase” of the trial. Subjects are then removed from the maze for a delay period, e.g., a 60 second delay, a 15 minute delay, a one-hour delay, a two-hour delay, a six hour delay, a 24 hour delay, or longer) between the information phase and the subsequent “retention test,” during which the barriers on the maze are removed, thus allowing access to all eight arms. […] The identity and configuration of the blocked arms vary across trials. The number of “errors” the subjects make during the retention test phase is tracked. An error occurs in the trial if the subjects entered an arm from which food had already been retrieved in the pre-delay component of the trial, or if it re-visits an arm in the post-delay session that had already been visited. A fewer number of errors would indicate better spatial memory. The number of errors made by the test subject, under various test compound treatment regimes, can then be compared for efficacy of the test compound in treating cognitive impairment associated with CNS disorders.

aMCI subjects = test: explicit 3-alternative forced choice task (lure images); type: in vivo, human
Excerpt: See Folstein et al., J Psychiatric Res 12: 189-98, (1975); Robbins et al., Dementia 5: 266-81, (1994); Rey, L'examen clinique en psychologie, (1964); Kluger et al., J Geriatr Psychiatry Neurol 12:168-79, (1999); Marquis et al., 2002 and Masur et al., 1994, or MATRICS consensus neuropsychological test battery which includes tests of working memory, speed of processing, attention, verbal learning, visual learning, reasoning and problem solving and social cognition. Another example of a cognitive test in humans is the explicit 3-alternative forced choice task. In this test, subjects are presented with color photographs of common objects consisting of a mix of three types of image pairs: similar pairs, identical pairs and unrelated foils. The second of the pair of similar objects is referred to as the “lure”. These image pairs are fully randomized and present individually as a series of images. Subjects are instructed to make a judgment as to whether the objects seen are new, old or similar. A “similar” response to the presentation of a lure stimulus indicates successful memory retrieval by the subject.
The activity of the subject's medial temporal lobe is measured by functional MRI during the subject's participation in an explicit 3-alternative forced choice task, where participants view novel, repeated and similar (“lure”) stimuli. The Psychophysics Toolbox extensions in Matlab 7.0 (The MathWorks, Natick, Mass.) is used for stimulus presentation and behavioral data collection. Stimuli are color photographs of common objects. Each participant undergoes a series of testing runs during the functional imaging sessions, each run consisting of a mix of three types of image pairs: similar pairs, identical pairs and unrelated foils. These image pairs are fully randomized throughout the run and present individually as a series of images (see FIG. 6A). […]
The activity of the subject's medial temporal lobe is measured by functional MRI during the subject's participation in an explicit 3-alternative forced choice task, where participants view novel, repeated and similar (“lure”) stimuli. […]

CC[C@@H](C(N)=O)N1CCCC1=O [levetiracetam, (2S)-2-(2-oxopyrrolidin-1-yl) butanamide]
memory performance relative to vehicle control treatment (aged-impaired rats (AI)): significantly improves memory performance | human equivalent dose (HED) of the effective rat dose (aged-impaired rats (AI); HED for a 70 kg human): 28-56 mg twice a day | human equivalent dose (HED) of the effective rat dose (aged-impaired rats (AI); body surface area conversion of 5-10 mg/kg in rats): 0.8 to 1.6 mg/kg/day | average no. of errors±standard error of the mean (SEM) (aged-impaired rats (AI); levetiracetam 5 mg/kg/day i.p. 30-40 min before trial, one-hour delay, n=10, vehicle 2.00±0.42): 0.75±0.32 | memory performance relative to vehicle control treatment (aged-impaired rats (AI); levetiracetam 10 mg/kg/day i.p., one-hour delay, paired t-test t(9)=2.37, p=0.042): significantly improves memory performance | performance of AI rats in the radial maze task (aged-impaired rats (AI); levetiracetam 20 mg/kg, FIG. 1): fails to improve the performance of AI rats | memory performance in AI rats (aged-impaired rats (AI); rat, in vivo): does not significantly improve the memory performance | performance of aMCI subjects in the memory task (similar vs old responses to lures) (aMCI subjects; levetiracetam 62.5 mg BID for two weeks vs placebo, p=0.041): improves significantly | performance of aMCI subjects in the memory task (similar vs old responses to lures) (aMCI subjects; levetiracetam 125 mg twice a day for two weeks vs placebo, p=0.039): improves significantly | performance of aMCI subjects in the memory task (similar vs old responses to lures) (aMCI subjects; levetiracetam 250 mg BID for two weeks vs placebo, p=0.2396): does not significantly improve
